{"source": "patent US6451807B1", "about": "“Methods of treating sexual dysfunction in an individual suffering from a retinal disease, class 1 congestive heart failure, or myocardial infarction using a PDE5 inhibitor” (Lilly Icos, LLC., priority 1999, dated 2002)", "target": "T1, Bovine PDE6 (Bos taurus, UniProt P11541+P23439)", "T1 construct": "Hypotonic extracts were prepared by suspending isolated ROS; tissue Dr. N. Virmaux, INSERM U338, Strasbourg; host or cells: bovine retina, rod outer segment hypotonic extract", "T1 sequence (P11541 2-856 limits assumed)": "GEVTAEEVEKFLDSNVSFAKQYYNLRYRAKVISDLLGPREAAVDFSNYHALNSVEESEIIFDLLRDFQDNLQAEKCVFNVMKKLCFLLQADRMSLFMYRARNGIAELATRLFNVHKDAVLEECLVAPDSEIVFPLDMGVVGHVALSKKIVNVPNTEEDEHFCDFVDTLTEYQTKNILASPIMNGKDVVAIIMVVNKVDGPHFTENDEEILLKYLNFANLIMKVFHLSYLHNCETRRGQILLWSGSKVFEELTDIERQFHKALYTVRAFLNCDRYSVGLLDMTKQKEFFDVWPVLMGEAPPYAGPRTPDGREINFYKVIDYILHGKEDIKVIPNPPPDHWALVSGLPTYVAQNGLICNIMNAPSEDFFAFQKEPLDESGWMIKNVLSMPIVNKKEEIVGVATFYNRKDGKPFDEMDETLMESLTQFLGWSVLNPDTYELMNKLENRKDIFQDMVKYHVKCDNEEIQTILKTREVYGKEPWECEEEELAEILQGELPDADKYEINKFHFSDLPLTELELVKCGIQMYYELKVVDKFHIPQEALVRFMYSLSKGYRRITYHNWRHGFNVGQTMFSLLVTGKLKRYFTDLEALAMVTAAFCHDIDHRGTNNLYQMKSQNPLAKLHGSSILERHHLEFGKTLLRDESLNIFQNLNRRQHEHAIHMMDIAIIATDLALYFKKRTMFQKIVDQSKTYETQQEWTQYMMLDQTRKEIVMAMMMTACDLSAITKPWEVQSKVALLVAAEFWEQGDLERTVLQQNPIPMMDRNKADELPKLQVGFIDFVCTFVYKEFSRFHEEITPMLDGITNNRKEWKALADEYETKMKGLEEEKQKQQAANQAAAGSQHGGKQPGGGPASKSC", "T1 sequence (P23439 2-850 limits assumed)": "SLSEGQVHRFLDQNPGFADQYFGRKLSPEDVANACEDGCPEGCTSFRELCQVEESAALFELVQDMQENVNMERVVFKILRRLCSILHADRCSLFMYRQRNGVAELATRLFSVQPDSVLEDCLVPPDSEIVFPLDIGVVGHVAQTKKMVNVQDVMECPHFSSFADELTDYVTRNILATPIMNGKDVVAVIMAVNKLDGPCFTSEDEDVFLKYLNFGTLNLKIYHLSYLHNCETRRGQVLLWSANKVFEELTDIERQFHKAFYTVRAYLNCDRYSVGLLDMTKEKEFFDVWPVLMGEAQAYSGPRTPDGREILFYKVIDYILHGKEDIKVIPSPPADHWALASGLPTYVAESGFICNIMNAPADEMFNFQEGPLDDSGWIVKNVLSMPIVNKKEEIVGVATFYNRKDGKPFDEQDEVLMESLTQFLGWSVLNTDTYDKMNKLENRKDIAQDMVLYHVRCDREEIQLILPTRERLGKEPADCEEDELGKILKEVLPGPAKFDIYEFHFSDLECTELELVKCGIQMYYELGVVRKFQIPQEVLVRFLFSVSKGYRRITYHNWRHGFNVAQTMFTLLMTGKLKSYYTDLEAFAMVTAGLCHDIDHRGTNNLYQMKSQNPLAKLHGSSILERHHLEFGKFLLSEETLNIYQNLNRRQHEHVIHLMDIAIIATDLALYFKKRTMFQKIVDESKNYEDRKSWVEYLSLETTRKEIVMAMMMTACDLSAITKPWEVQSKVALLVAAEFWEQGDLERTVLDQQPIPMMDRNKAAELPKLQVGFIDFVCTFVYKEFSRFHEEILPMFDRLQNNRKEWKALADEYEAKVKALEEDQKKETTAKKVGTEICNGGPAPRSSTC", "T1 sequence (P04972 1-87 partner)": "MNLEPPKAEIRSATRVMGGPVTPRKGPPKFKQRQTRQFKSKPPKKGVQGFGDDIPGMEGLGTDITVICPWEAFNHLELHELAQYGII", "assay": "PDE6 enzyme inhibition, IC50 determination", "format": "biochemical", "experimental": "Bovine PDE6 was supplied by Dr. N. Virmaux, INSERM U338, Strasbourg. Bovine retinas were prepared as described by Virmaux et al., FEBS Letters, 12(6), pp. 325-328 (1971) and see also, A. Sitaramayya et al., Exp. Eye Res., 25, pp. 163-169 (1977). Briefly, unless stated otherwise, all operations were done in the cold and in dim red light. Eyes were kept in the cold and in the dark for up to four hours after slaughtering.\nPreparation of bovine retinal outer segment (ROS) basically followed procedures described by Schichi et al., J. Biol. Chem., 224:529 (1969). In a typical experiment, 35 bovine retinas were ground in a mortar with 35 mL 0.066 M phosphate buffer, pH 7.0, made up to 40% with sucrose, followed by homogenization in a Potter homogenizer (20 up and down strokes). The suspension was centrifuged at 25,000×g for 20 minutes. The pellet was homogenized in 7.5 mL 0.006 M phosphate buffer (40% in sucrose), and carefully layered under 7.5 mL of phosphate buffer (containing no sucrose). Centrifugation was conducted in a swing-out rotor at 45,000×g for 20 minutes, and produced a pellet which is black at the bottom, and also a red band at the interface 0.066 M. phosphate—40% sucrose/0.066 M phosphate (crude ROS). The red material at the interface was removed, diluted with phosphate buffer, spun down to a pellet, and redistributed in buffered 40% sucrose as described above. This procedure was repeated 2 or 3 times until no pellet was formed. The purified ROS was washed in phosphate buffer and finally spun down to a pellet at 25,000×g for 20 minutes. All materials were then kept frozen until used.\nHypotonic extracts were prepared by suspending isolated ROS in 10 mM Tris-Cl pH 7.5, 1 mM EDTA, and 1 mM dithioerythritol, followed by centrifugation at 100,000×g for 30 minutes.\nThe preparation was reported to have a specific activity of about 35 nmoles cGMP hydrolyzed per minute per milligram protein.\nBiophys. Acta, 384:430 (1975)."}
{"smiles": "CN1CC(=O)N2[C@H](c3ccc4c(c3)OCO4)c3[nH]c4ccccc4c3C[C@@H]2C1=O", "note": "[Compound 5, (6R-trans)-6-(1,3-benzodioxol-5-yl)-2,3,6,7,12,12a-hexahydro-2-methylpyrazino[1′,2′:1,6]pyrido[3,4-b]indole-1,4-dione]", "values": [{"measurement": "IC50", "result": 3.4, "unit": "µM"}]}
